In the supplement of paper PMC12137928 one finds IC50 cell viability data, which are given here for 25 molecules.

The test system of this assay is HCT116. The settings on record: 72 h. An outline of the steps:
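HCT116 cells went into 1536-well plates at 250 per well. CellTiter-Glo luminescence was expressed relative to vehicle (0%) and positive control (-100%) and then pattern-corrected. Both IC50 and maximal efficacy were taken from four-parameter Hill fits.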

Molecules are shown by their SMILES. Structures can show the parent of a compound that is named as a salt. Some results are limits rather than exact numbers.

Turning to `N[C@H]1C(O)O[C@H](CO)[C@@H](O)[C@@H]1O` (stereo not given in full) [Glucosamine hydrochloride], the IC50 cell viability (ICRF193 0 nM) is more than 45.8 µM and the IC50 cell viability (ICRF193 200 nM) was more than 45.8 µM.

As to `Clc1ccc2c(c1)C(N1CCNCC1)=Nc1ccccc1O2` [Amoxapine], the IC50 cell viability (ICRF193 0 nM) is more than 45.8 µM and the IC50 cell viability (ICRF193 200 nM) is more than 45.8 µM.

Regarding `CCC(=O)O[C@@H]1C=C2CC[C@@H]3[C@H](CC[C@]4(C)[C@@H](OC(=O)CC)CC[C@@H]34)C2CC1` (stereo not given in full) [Bolandiol dipropionate], the IC50 cell viability (ICRF193 0 nM) is more than 45.8 µM and the IC50 cell viability (ICRF193 200 nM) is more than 45.8 µM.

Consider `CCCCCCCCCCCC(=O)OCN1C(=O)CCc2ccc(OCCCCN3CCN(c4cccc(Cl)c4Cl)CC3)cc21` [ARIPIPRAZOLE LAUROXIL], for which the IC50 cell viability was more than 45.8 µM (ICRF193 0 nM) and more than 45.8 µM (ICRF193 200 nM).

With `CCCCCCCCCCCCCCCCCC(=O)NCCCC[C@H](NC(=O)CC[C@@H](NC(=O)[C@H](C)NC(=O)[C@@H](C)O[C@H]1[C@H](O)[C@@H](CO)OC(O)[C@@H]1NC(C)=O)C(N)=O)C(=O)O` (stereo not given in full) [ROMURTIDE], the IC50 cell viability is more than 45.8 µM (ICRF193 0 nM) and more than 45.8 µM (ICRF193 200 nM).

The molecule `C[C@H](N)[C@H](O)c1ccc(O)c(O)c1` [Levonordefrin] showed an IC50 cell viability (ICRF193 0 nM) of more than 45.8 µM and an IC50 cell viability (ICRF193 200 nM) of more than 45.8 µM.

`COc1c(N2C[C@@H]3CCCN[C@@H]3C2)c(F)cc2c(=O)c(C(=O)O)cn(C3CC3)c12` [Moxifloxacin (Hydrochloride)] gave an IC50 cell viability (ICRF193 0 nM) of more than 45.8 µM and an IC50 cell viability (ICRF193 200 nM) of more than 45.8 µM.

For the molecule `CO/N=C(\C(=O)N[C@@H]1C(=O)N2C(C(=O)O)=C(CSc3nnnn3C)CS[C@H]12)c1csc(N)n1` [CEFMENOXIME HYDROCHLORIDE], the IC50 cell viability by setting is: (ICRF193 0 nM) more than 45.8 µM; (ICRF193 200 nM) more than 45.8 µM.

For `NCCCC[C@H](N[C@@H](CCc1ccccc1)C(=O)O)C(=O)N1CCC[C@H]1C(=O)O` [Lisinopril dihydrate], the IC50 cell viability by setting is: (ICRF193 0 nM) more than 45.8 µM; (ICRF193 200 nM) more than 45.8 µM.

`CN(C)C(=O)c1cc2cnc(Nc3ccc(N4CCNCC4)cn3)nc2n1C1CCCC1` [Ribociclib (LEE011)] returned an IC50 cell viability (ICRF193 0 nM) of more than 45.8 µM and an IC50 cell viability (ICRF193 200 nM) of more than 45.8 µM.

Regarding `Nc1nc2c(ncn2COCCO)c(=O)[nH]1` [Aciclovir], the IC50 cell viability reads like this: (ICRF193 0 nM) more than 45.8 µM; (ICRF193 200 nM) more than 45.8 µM.

As for `C[N@+]1(CC2CC2)CC[C@]23c4c5ccc(O)c4O[C@H]2C(=O)CC[C@@]3(O)[C@H]1C5` [Methylnaltrexone Bromide], the IC50 cell viability by setting is: (ICRF193 0 nM) more than 45.8 µM; (ICRF193 200 nM) more than 45.8 µM.

On to `Cc1nc(C)c(Cl)c(O)c1Cl` [Clopidol], for which the IC50 cell viability is more than 45.8 µM (ICRF193 0 nM) and more than 45.8 µM (ICRF193 200 nM).

In the case of `COc1c2occc2cc2ccc(=O)oc12` [Methoxsalen], the IC50 cell viability was more than 45.8 µM (ICRF193 0 nM) and more than 45.8 µM (ICRF193 200 nM).

For the molecule `Cc1ccc(C)c(OCCCC(C)(C)C(=O)O)c1` [Gemfibrozil], the IC50 cell viability was more than 45.8 µM (ICRF193 0 nM) and more than 45.8 µM (ICRF193 200 nM).

Regarding `Cc1cc2c(s1)Nc1ccccc1N=C2N1CCN(C)CC1` [Olanzapine], the IC50 cell viability was more than 45.8 µM (ICRF193 0 nM) and more than 45.8 µM (ICRF193 200 nM).

Turning to `C[C@]12CC[C@@H]3c4ccc(O)cc4CC[C@H]3[C@@H]1C[C@@H](O)[C@@H]2O` [Estriol], the IC50 cell viability is, setting by setting: (ICRF193 0 nM) more than 45.8 µM; (ICRF193 200 nM) more than 45.8 µM.

With `CC[C@H]1C[C@H]2[C@@H]3CCC4=CC(=O)CC[C@@H]4[C@H]3CC[C@]2(C)[C@H]1O` [Oxendolone], the IC50 cell viability is, setting by setting: (ICRF193 0 nM) more than 45.8 µM; (ICRF193 200 nM) more than 45.8 µM.

`NC(=O)N1c2ccccc2C=Cc2ccccc21` [Carbamazepine]: the IC50 cell viability is, setting by setting: (ICRF193 0 nM) more than 45.8 µM; (ICRF193 200 nM) more than 45.8 µM.

On to `CC(=O)Oc1c(C)cc(OCC(O)CNC(C)C)c(C)c1C` (stereo not given) [Metipranolol], for which the IC50 cell viability (ICRF193 0 nM) was more than 45.8 µM and the IC50 cell viability (ICRF193 200 nM) was more than 45.8 µM.

For `N=C(N)c1ccc(OCCCOc2ccc(C(=N)N)cc2)cc1` [Propamidine], the IC50 cell viability by setting is: (ICRF193 0 nM) more than 45.8 µM; (ICRF193 200 nM) more than 45.8 µM.

Regarding `COCCCN1CCC(NC(=O)c2cc(Cl)c(N)c3c2OCC3)CC1` [Prucalopride], the IC50 cell viability runs as follows: (ICRF193 0 nM) more than 45.8 µM; (ICRF193 200 nM) more than 45.8 µM.

Take `O=C([O-])C(O)[C@H](O)[C@@H](O)[C@H](O)[C@H](O)CO.O=C([O-])C(O)[C@H](O)[C@@H](O)[C@H](O)[C@H](O)CO.[Ca+2]` (stereo not given in full) [CALCIUM GLUCEPTATE]: the IC50 cell viability was more than 45.8 µM (ICRF193 0 nM) and more than 45.8 µM (ICRF193 200 nM).

Take `CCCCCOC(=O)Nc1nc(=O)n([C@@H]2O[C@H](C)[C@@H](O)[C@H]2O)cc1F` [Capecitabine]: the IC50 cell viability by setting is: (ICRF193 0 nM) more than 45.8 µM; (ICRF193 200 nM) more than 45.8 µM.

As for `CC[C@H]1[C@@H](O)[C@@H]2[C@H](CC[C@]3(C)[C@@H]([C@H](C)CCC(=O)O)CC[C@@H]23)[C@@]2(C)CC[C@@H](O)C[C@@H]12` [INT-747 (Obeticholic acid)], the IC50 cell viability is, setting by setting: (ICRF193 0 nM) more than 45.8 µM; (ICRF193 200 nM) more than 45.8 µM.
